Data on 14 molecules can be found in patent US10849878B2 (OBSHCHESTVO S OGRANICHENNOY OTVETSTVENNOSTYU “NORMOFARM”, priority 2015, dated 2020).

Series [1] relates to rats. The following applies: comparison salts; cited from earlier work.
Series [2] deals with rats. Briefly: Porsolt helplessness test. It counts as in vivo, rat.
The conditions of series [3]: in normal settings; cited from earlier work.
Setting [4] is: 7 days after the dosing, LiAsc, LiCa 5 mg/kg, phenazepam 0.25 mg.
The mark [5] stands for this setting: 7 days after the drug withdrawal, 5 mg/kg.
Setting [6] is: 28 days after the dosing, LiAsc, LiCa 5 mg/kg, phenazepam 0.25 mg.
Setting [7] is: 28 days after the drug withdrawal, 5 mg/kg.

In the case of `O=C([O-])CCC(=O)[O-].[Li+].[Li+]` [Lithium succynate], in series [1], the “LD50, mg/kg in rats” value was 2416 mg/kg.

With `[Br-].[Li+]` [Lithium bromide], the “LD50, mg/kg in rats” value in series [1] is given as 2200 mg/kg.

For the molecule Lithium nitrate trihydrate, the “LD50, mg/kg in rats” value in series [1] was 1400 mg/kg.

Take `[Li+].[O]=[Ta](=[O])[O-]` [Lithium metatantalate]: the “LD50, mg/kg in rats” value in series [1] is recorded as 750 mg/kg.

As for `O=C([O-])CCCO.[Li+]` [Lithium oxibutirate], the “LD50, mg/kg in rats” value in series [1] is 2200 mg/kg.

As to `CC(O)C(=O)[O-].[Li+]` (stereo not drawn) [Lithium lactate], in series [1], the “LD50, mg/kg in rats” value is 2100 mg/kg.

Turning to `O=C([O-])[O-].[Li+].[Li+]` [Lithium carbonate], in series [2] (setting [4]), the Adrenalin amounted to 24.9 ± 9.5 µg/L, the “Duration of activity” value stood at 100.9 ± 64.9 s, the “Duration of immobility” value was determined as 499.1 ± 53.0 s and the “Eosinophils (Dunger method) in mm^3” value was 312.6 ± 68.1 in mm^3. For the same molecule, in series [2] (setting [4]), the Noradrenalin was determined as 69.3 ± 35.2 µg/L and the “Number of gastric ulcers” value is recorded as 5.9 ± 2.1. Further, in series [2] (setting [5]), the Adrenalin stood at 29.6 ± 13.6 µg/L, the “Duration of activity” value turned out to be 91.8 ± 43.9 s, the “Duration of immobility” value is 507.9 ± 101.4 s and the “Eosinophils (Dunger method) in mm^3” value is given as 299.3 ± 93.5 in mm^3. Further, in series [2] (setting [5]), the Noradrenalin was 80.6 ± 29.7 µg/L and the “Number of gastric ulcers” value is listed as 9.9 ± 3.7. In series [2] (setting [6]), the Adrenalin turned out to be 36.7 ± 9.6 µg/L, the “Duration of activity” value is 90.8 ± 67.3 s, the “Duration of immobility” value is 508.9 ± 107.2 s and the “Eosinophils (Dunger method) in mm^3” value is reported as 301.8 ± 102.3 in mm^3. In series [2] (setting [6]), the Noradrenalin was 76.83 ± 30.2 µg/L and the “Number of gastric ulcers” value amounted to 7.3 ± 2.6. Also, in series [2] (setting [7]), the Adrenalin amounted to 37.1 ± 14.7 µg/L, the “Duration of activity” value was 93.8 ± 32.7 s, the “Duration of immobility” value amounted to 504.4 ± 173.4 s and the “Eosinophils (Dunger method) in mm^3” value worked out at 281.2 ± 83.1 in mm^3. In addition, in series [2] (setting [7]), the Noradrenalin came to 76.34 ± 18.6 µg/L and the “Number of gastric ulcers” value came out at 10.0 ± 4.8.

`[Cl-].[Li+]` [Lithium chloride]: the “LD50, mg/kg in rats” value in series [1] is recorded as 970 mg/kg.

Take `O=C([O-])c1ccccc1.[Li+]` [Lithium benzoate]: the “LD50, mg/kg in rats” value in series [1] is listed as 1200 mg/kg.

On to `NCCCC(=O)O` [GABA lithium], for which the “LD50, mg/kg in rats” value in series [1] was 1800 mg/kg.

As to `O=C1O[C@H]([C@@H](O)CO)C(O)=C1O` [ascorbic acid], the plasma concentration in series [3] was 10000 to 20000 ng/mL.

For `[F-].[Li+]` [Lithium fluoride], the “LD50, mg/kg in rats” value in series [1] is recorded as 175 mg/kg.

Consider `O=C1CN=C(c2ccccc2Cl)c2cc(Br)ccc2N1` [phenazepam], for which, in series [2] (setting [4]), the Adrenalin was 6.8 ± 0.65 µg/L, the “Duration of activity” value turned out to be 426.7 ± 76.4 s, the “Duration of immobility” value was 173.3 ± 22.1 s and the “Eosinophils (Dunger method) in mm^3” value came out at 969.1 ± 42.3 in mm^3. Also, in series [2] (setting [4]), the Noradrenalin was determined as 17.6 ± 1.95 µg/L and the “Number of gastric ulcers” value was 0.4 ± 0.1. In series [2] (setting [6]), the Adrenalin was 6.2 ± 0.57 µg/L, the “Duration of activity” value stood at 494.8 ± 60.4 s, the “Duration of immobility” value amounted to 105.2 ± 20.1 s and the “Eosinophils (Dunger method) in mm^3” value amounted to 988.1 ± 42.3 in mm^3. Also, in series [2] (setting [6]), the Noradrenalin came out at 16.2 ± 1.1 µg/L and the “Number of gastric ulcers” value came to 0.1 ± 0.2.

On to `O=C([O-])c1cccnc1.[Li+]` [Lithium nicotinate], for which the “LD50, mg/kg in rats” value in series [1] is recorded as 2200 mg/kg.
